Key:
[1] = system: non-small cell lung cancer cell line H460; assay: In vitro human cancer cell line cytotoxicity (proliferation) assay in H460, CellTiter-Glo, 72 hours; assay type: cell-based; conditions: H460 cells, DMSO condition (no AKR1C3 inhibitor), read-out: CTG H460: Avg IC50 (nM) [Assay Condition: DMSO]
Method in brief: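 IC50s in nM come from CellTiter-Glo viability read after 72 h of compound exposure. Compounds went in from 10 mM DMSO stocks onto H460 cells, which had been plated at 3×10^3 per well and grown 24 h beforehand at 37 °C, 5% CO2.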

[2] = system: non-small cell lung cancer cell line H460; assay: H460 proliferation assay in the presence of 3 uM ASP9521 (AKR1C3 specific inhibitor); assay type: cell-based, human; conditions: H460 cells, CellTiter-Glo, 72 hours, in the presence of 3 uM ASP9521 added 4 hours prior to compounds; read-out: CTG H460: Avg IC50 (nM) [Assay Condition: ASP9521]
Method in brief: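 AKR1C3 blocked with 3 uM ASP9521 given 4 h ahead of test compounds. H460 cells, plated 24 h earlier, were then treated for 72 h at 37 °C in 5% CO2. CellTiter-Glo luminescence gave viability.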

SMILES | IC50 [1] | IC50 [2] | IC50 ([1]; Homo sapiens, NCI-H460, 72 h)
CC(C)Oc1cccc(Oc2c([N+](=O)[O-])ccc3c2CC[C@H]3OP(=O)(N2CC2)N2CC2)c1 [Example 453] | < 10 nM | 819 nM | 
Cn1cc2ccc(Oc3c([N+](=O)[O-])ccc4c3CC[C@@H]4OP(=O)(N3CC3)N3CC3)cc2n1 [Example 399] | < 10 nM | 1110 nM | 
Cc1nncn1-c1cccc(Oc2c([N+](=O)[O-])ccc3c2CC[C@@H]3OP(=O)(N2CC2)N2CC2)c1 [Example 434] |  | 1140 nM | < 10 nM
O=[N+]([O-])c1ccc2c(c1Oc1ccc(-c3ncccn3)cc1)CC[C@H]2OP(=O)(N1CC1)N1CC1 [Example 284] | < 10 nM | 1150 nM | 
O=[N+]([O-])c1ccc2c(c1Oc1cncc(C3CC3)c1)CC[C@H]2OP(=O)(N1CC1)N1CC1 [Example 318] |  | 1070 nM | < 10 nM
O=C(c1cccc(Oc2c([N+](=O)[O-])ccc3c2CCC3OP(=O)(N2CC2)N2CC2)c1)N1CCOCC1 (single isomer, unassigned) [Example 125] |  | 766 nM | < 10 nM
Cn1c(-c2cccc(Oc3c([N+](=O)[O-])ccc4c3CCC4OP(=O)(N3CC3)N3CC3)c2)cccc1=O (stereo not shown) [Example 74] | ≥ 100 nM | 1270 nM | 
O=[N+]([O-])c1ccc2c(c1Oc1ccc(C(F)(F)F)nc1)CCC2OP(=O)(N1CC1)N1CC1 (stereo not shown) [Example 26] | < 10 nM | 298 nM | 
O=C1c2cc(Oc3cc4c(cc3[N+](=O)[O-])CCC4OP(=O)(N3CC3)N3CC3)ccc2CN1C1CC1 (single isomer, unassigned) [Example 171] | < 10 nM | 1100 nM | 
Cn1cc(-c2ccc(Oc3cc4c(cc3[N+](=O)[O-])CCC4OP(=O)(N3CC3)N3CC3)cc2)ccc1=O (stereo not shown) [Example 179] | ≥ 100 nM | 1100 nM | 
CC(OP(=O)(N1C[C@H]1C)N1C[C@H]1C)c1ccc([N+](=O)[O-])c(Oc2ccc(-c3ccccc3)cc2)c1 (stereo partly shown) [Example 220] | < 10 nM | 5050 nM | 
C[C@H](OP(=O)(N1CC1)N1CC1)c1cc2cc(Oc3ccc4c(c3)CN(C)C4=O)c([N+](=O)[O-])cc2o1 [Example 565] | 10 to 50 nM | 5930 nM | 
O=[N+]([O-])c1ccc2c(c1Oc1cccc(-c3cc(F)nn3CCO)c1)CC[C@@H]2OP(=O)(N1CC1)N1CC1 [Example 372] |  | 332 nM | < 10 nM
O=[N+]([O-])c1ccc2c(c1Oc1ccc(-c3ccc(F)cc3)cc1)CCC2OP(=O)(N1CC1)N1CC1 (stereo not shown) [Example 22] | 10 to 50 nM | 1640 nM | 
O=[N+]([O-])c1cc2oc(COP(=O)(N3CC3)N3CC3)cc2cc1Oc1cccc(-c2ccccn2)c1 [Example 536] |  | 651 nM | < 10 nM
O=[N+]([O-])c1ccc2c(c1Oc1ccc(F)c(OCC(F)(F)F)c1)CC[C@@H]2OP(=O)(N1CC1)N1CC1 [Example 494] |  | 160 nM | < 10 nM
O=[N+]([O-])c1ccc2c(c1Oc1cccc(-c3ccc(F)cn3)c1)CCC2OP(=O)(N1CC1)N1CC1 (racemic) [Example 320] | < 10 nM | 2230 nM | 
CN1Cc2ccc(Oc3cc4c(cc3[N+](=O)[O-])OCCC4OP(=O)(N3CC3)N3CC3)cc2C1=O (single isomer, unassigned) [Example 201] |  | 605 nM | < 10 nM
O=[N+]([O-])c1cc2c(cc1Oc1ccc(C3CC3)cc1)C(OP(=O)(N1CC1)N1CC1)CC2 (stereo not shown) [Example 148] |  | 955 nM | < 10 nM
O=[N+]([O-])c1ccc2c(c1Oc1cccc(-c3ncccn3)c1)CCC2OP(=O)(N1CC1)N1CC1 (stereo not shown) [Example 84] |  | 1020 nM | 10 to 50 nM
O=C(c1cccc(Oc2c([N+](=O)[O-])ccc3c2CCC3OP(=O)(N2CC2)N2CC2)c1)N1CCC(F)(F)CC1 (stereo not shown) [Example 104] | < 10 nM | 180 nM | 

SMILES | IC50 [1] | IC50 [2] | IC50 ([1]; Homo sapiens, NCI-H460, 72 h)
Cn1cc(-c2ccc(Oc3cc4c(cc3[N+](=O)[O-])CCC4OP(=O)(N3CC3)N3CC3)cc2)cn1 (stereo not shown) [Example 181] | < 10 nM | 942 nM | 
O=[N+]([O-])c1ccc2c(c1Oc1ccc(-c3ccccn3)c(F)c1)CCC2OP(=O)(N1CC1)N1CC1 (stereo not shown) [Example 287] | < 10 nM | 1010 nM | 
Cn1cnc2ccc(Oc3cc4c(cc3[N+](=O)[O-])CCC4OP(=O)(N3CC3)N3CC3)cc2c1=O (stereo not shown) [Example 195] | 10 to 50 nM | 4980 nM | 
Cn1cc(-c2cc(Oc3c([N+](=O)[O-])ccc4c3CCC4OP(=O)(N3CC3)N3CC3)ccc2F)cn1 (stereo not shown) [Example 330] | < 10 nM | 2980 nM | 
O=[N+]([O-])c1ccc2c(c1Oc1cccc(-c3ccccc3)c1)CCC2OP(=O)(N1CC1)N1CC1 (single isomer, unassigned) [Example 31] | < 10 nM | 1550 nM | 
CC(C)(C)c1cncc(Oc2c([N+](=O)[O-])ccc3c2CCC3OP(=O)(N2CC2)N2CC2)c1 (stereo not shown) [Example 325] | < 10 nM | 608 nM | 
O=C(c1cccc(Oc2c([N+](=O)[O-])ccc3c2CCC3OP(=O)(N2CC2)N2CC2)c1)N1CCCCC1 (single isomer, unassigned) [Example 68] |  | 1160 nM | < 10 nM
Cn1nc(-c2cccc(Oc3c([N+](=O)[O-])ccc4c3CC[C@@H]4OP(=O)(N3CC3)N3CC3)c2)cc1F [Example 375] |  | 2520 nM | < 10 nM
O=[N+]([O-])c1cc2c(cc1Oc1ccccc1-c1ccccc1)C(OP(=O)(N1CC1)N1CC1)CC2 (stereo not shown) [Example 196] |  | 6370 nM | ≥ 100 nM
COc1cccc(Oc2c([N+](=O)[O-])ccc3c2CC[C@H]3OP(=O)(N2CC2)N2CC2)c1 [Example 448] | < 10 nM | 647 nM | 
O=[N+]([O-])c1ccc2c(c1Oc1cccc(-n3ncnn3)c1)CC[C@H]2OP(=O)(N1CC1)N1CC1 [Example 437] |  | 235 nM | < 10 nM
Cc1cccc(-c2ccc(Oc3c([N+](=O)[O-])ccc4c3CCC4OP(=O)(N3CC3)N3CC3)cc2)n1 (racemic) [Example 277] | < 10 nM | 1530 nM | 
CN1Cc2ccc(Oc3cc4cc(COP(=O)(N5CC5)N5CC5)oc4cc3[N+](=O)[O-])cc2C1=O [Example 569] | < 10 nM | 937 nM | 
O=[N+]([O-])c1ccc2c(c1Oc1ccc(F)c(OC(F)F)c1)CCC2OP(=O)(N1CC1)N1CC1 (racemic) [Example 475] | < 10 nM | 509 nM | 
Cc1cccc(-c2cccc(Oc3c([N+](=O)[O-])ccc4c3CCC4OP(=O)(N3CC3)N3CC3)c2)n1 (stereo not shown) [Example 321] | 10 to 50 nM | 6690 nM | 
CN(C)C(=O)c1ccc(Oc2c([N+](=O)[O-])ccc3c2CCC3OP(=O)(N2CC2)N2CC2)cc1 (single isomer, unassigned) [Example 18] | < 10 nM | 501 nM | 
CC(OP(=O)(N1CC1)N1CC1)c1ccc([N+](=O)[O-])c(Cn2cc(C(=O)N(C)C)ccc2=O)c1 (stereo not shown) [Example 6] |  | > 10000 nM | ≥ 100 nM
Cn1cnc(-c2cccc(Oc3c([N+](=O)[O-])ccc4c3CCC4OP(=O)(N3CC3)N3CC3)c2)cc1=O (stereo not shown) [Example 118] | 10 to 50 nM | 4510 nM | 
Cn1nc(F)cc1-c1cccc(Oc2c([N+](=O)[O-])ccc3c2CCC3OP(=O)(N2CC2)N2CC2)c1 (stereo not shown) [Example 374] | < 10 nM | 468 nM | 
CN(C)C(=O)c1cc(Oc2c([N+](=O)[O-])ccc3c2CC[C@@H]3OP(=O)(N2CC2)N2CC2)ccc1F [Example 255] | < 10 nM | 832 nM | 
